Data on three molecules can be found in paper PMC2707266 (2009).

Like-named read-outs stand apart in the source and are kept apart here.

What all share (format): biochemical
In experiment [1] the target is T1, KPC-2 (Klebsiella pneumoniae, UniProt Q9F663). Briefly: nitrocefin hydrolysis at […] nm, […] min pre-incubation.
In experiment [2] the target is T1, KPC-2. The experiment is described as follows: steady-state kinetics of hydrolysis at […] nm.
The target in experiment [3] is T1, KPC-2. Briefly: nitrocefin hydrolysis at […] nm, […] min pre-incubation. The source holds these as a separate data set.

T1 sequence (Q9F663 25-293, looked up): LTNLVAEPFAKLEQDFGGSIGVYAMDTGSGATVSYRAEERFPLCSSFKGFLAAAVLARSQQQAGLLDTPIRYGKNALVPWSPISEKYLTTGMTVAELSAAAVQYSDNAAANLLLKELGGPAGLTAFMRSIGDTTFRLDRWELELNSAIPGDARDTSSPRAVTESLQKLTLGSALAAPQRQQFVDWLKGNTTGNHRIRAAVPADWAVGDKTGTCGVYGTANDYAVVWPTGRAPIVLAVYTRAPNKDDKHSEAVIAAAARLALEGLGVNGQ

As to `O=C(O)[C@H]1/C(=C/CO)O[C@@H]2CC(=O)N21` [clavulanate], the IC50 against KPC-2 [1] stood at 6.5 µM.
In the case of `O=C(Cc1cccs1)N[C@@H]1C(=O)N2C(C(=O)O)=C(/C=C/c3ccc([N+](=O)[O-])cc3[N+](=O)[O-])CS[C@H]12` [nitrocefin], the Km at KPC-2 [2] worked out at 52 µM.
`C[C@]1(Cn2ccnn2)[C@H](C(=O)O)N2C(=O)C[C@H]2S1(=O)=O` [tazobactam]: the IC50 at KPC-2 [3] stood at 9.2 µM.

For orientation: IC50 means the point on the concentration scale where inhibition reaches its midpoint. One may read the Km as the concentration of substrate that gives half-maximal velocity.
